Results taken from US12201707B2, “Nano-emulsion composition for tooth whitening and method for producing the same” (AMOREPACIFIC CORPORATION, priority 2021, dated 2025).

Experiment: Tooth whitening test
Procedure: Discoloration was induced by immersing 12 hydroxyapatite (HAP) discs in black tea. Subsequently, the four discolored discs were immersed in vials containing each of the nanoemulsion composition of Example 31, a nanoemulsion composition in which oxygen was not captured as a control (control group 1), distilled water as a control (control group 2), and 3% hydrogen peroxide as a control (control group 3), respectively. The lightness values (L values) of the discs were measured on days 0, 2, 4 and 6 using a spectrophotometer. Before each measurement, the discs were completely dried at 55° C. for 1 hour using an oven.

Structure (SMILES): OO [Control 3, hydrogen peroxide]
- lightness value (L value) of disc (Day 0): 72.9
- lightness value (L value) of disc (Day 2): 84.3
- lightness value (L value) of disc (Day 4): 92.96
- lightness value (L value) of disc (Day 6): 97.48
